The values below are quoted from earlier work in patent publication US20160045407A1, “DENTRIFICE WITH INCREMENTAL CHEMISTRIES” (The Procter & Gamble Company, priority 2014, published 2016).

For this series the following is noted: concentration level where the cooling effect can be clearly recognized.

Turning to `CC(C)[C@@H]1CC[C@@H](C)C[C@H]1O` [L-menthol], the cooling threshold result is reported as “about 800 ppb”.

As for `CC(C)[C@@H]1CC[C@@H](C)C[C@@H]1O` [1-neomenthol], the cooling threshold result is “about 3,000 ppb”.

Consider `CC(C)[C@@H]1CC[C@@H](C)C[C@@H]1O` [d-neomenthol], for which the cooling threshold result is “about 25,000 ppb”.
